Laboratory results published in article PMC10583239 (CPT: Pharmacometrics & Systems Pharmacology, 2023).

Legend:
CYP2C19 [1] = biological target: T1, CYP2C19 (Homo sapiens, UniProt P33261); test: Metabolic stability in recombinant human CYP2C19 with NADPH; format: in vitro ADME; settings: CYP2C19 share of CYP metabolism, scaled by abundance and ISEF
CYP3A4 [2] = biological target: T2, CYP3A4 (Homo sapiens, UniProt P08684); test: CYP3A4 inhibition in human liver microsomes; format: in vitro ADME
T2 sequence (P08684 whole entry): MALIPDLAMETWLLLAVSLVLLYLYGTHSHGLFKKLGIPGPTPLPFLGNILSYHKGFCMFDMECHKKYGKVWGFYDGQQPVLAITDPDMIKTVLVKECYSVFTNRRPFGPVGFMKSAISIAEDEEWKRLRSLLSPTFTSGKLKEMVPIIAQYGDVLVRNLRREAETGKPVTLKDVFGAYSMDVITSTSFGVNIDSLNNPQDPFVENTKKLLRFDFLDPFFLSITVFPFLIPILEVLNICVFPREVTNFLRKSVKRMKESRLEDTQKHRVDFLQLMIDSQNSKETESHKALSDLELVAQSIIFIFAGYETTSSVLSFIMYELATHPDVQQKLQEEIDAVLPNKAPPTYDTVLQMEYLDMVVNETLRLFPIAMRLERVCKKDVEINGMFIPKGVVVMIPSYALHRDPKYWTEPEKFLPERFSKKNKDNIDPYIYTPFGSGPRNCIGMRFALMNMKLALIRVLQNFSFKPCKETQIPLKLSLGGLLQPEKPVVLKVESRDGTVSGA

CYP1A2 [3] = biological target: T3, CYP1A2 (Homo sapiens, UniProt P05177); settings: main text summary
T3 sequence (P05177 1-516): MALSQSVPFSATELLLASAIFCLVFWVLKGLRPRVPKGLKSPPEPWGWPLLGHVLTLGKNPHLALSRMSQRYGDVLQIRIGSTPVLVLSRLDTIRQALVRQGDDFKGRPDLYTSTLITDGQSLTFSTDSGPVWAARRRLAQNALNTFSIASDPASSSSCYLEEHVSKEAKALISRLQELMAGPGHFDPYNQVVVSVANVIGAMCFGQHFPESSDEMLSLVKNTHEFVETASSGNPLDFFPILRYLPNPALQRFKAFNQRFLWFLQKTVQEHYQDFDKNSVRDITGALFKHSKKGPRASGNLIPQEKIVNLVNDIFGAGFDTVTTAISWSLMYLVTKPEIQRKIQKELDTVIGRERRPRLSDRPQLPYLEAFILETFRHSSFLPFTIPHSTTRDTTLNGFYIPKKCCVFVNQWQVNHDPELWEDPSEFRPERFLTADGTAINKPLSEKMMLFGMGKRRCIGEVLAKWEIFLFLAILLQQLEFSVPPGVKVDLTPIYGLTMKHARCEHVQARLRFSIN

CYP3A4 [4] = biological target: T2, CYP3A4; test: Metabolic stability in recombinant human CYP3A4 with NADPH; format: in vitro ADME; settings: CYP3A4 share of CYP metabolism, scaled by abundance and ISEF
CYP2C19 [5] = biological target: T1, CYP2C19; test: biochemical
recombinant human CYP2A6 = biological target: T4, recombinant human CYP2A6 (Homo sapiens, UniProt P11509); test: Metabolic stability in recombinant human CYP2A6 with NADPH; format: in vitro ADME; settings: CYP2A6 share of CYP metabolism, scaled by abundance and ISEF
T4 sequence (P11509 1-494): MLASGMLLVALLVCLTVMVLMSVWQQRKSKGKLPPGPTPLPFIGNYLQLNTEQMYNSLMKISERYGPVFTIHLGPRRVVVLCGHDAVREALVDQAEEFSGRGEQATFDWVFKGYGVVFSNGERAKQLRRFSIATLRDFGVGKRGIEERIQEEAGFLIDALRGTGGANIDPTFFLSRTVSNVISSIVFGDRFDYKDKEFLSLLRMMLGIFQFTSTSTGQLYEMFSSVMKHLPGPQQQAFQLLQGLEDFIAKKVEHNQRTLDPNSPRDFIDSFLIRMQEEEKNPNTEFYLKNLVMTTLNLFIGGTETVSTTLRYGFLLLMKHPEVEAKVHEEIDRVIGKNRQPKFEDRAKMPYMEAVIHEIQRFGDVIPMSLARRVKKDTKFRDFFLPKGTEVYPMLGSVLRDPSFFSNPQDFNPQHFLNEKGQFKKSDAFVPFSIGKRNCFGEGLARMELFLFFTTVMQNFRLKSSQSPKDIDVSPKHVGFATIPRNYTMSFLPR

CYP1A2 [6] = biological target: T3, CYP1A2; test: Metabolic stability in recombinant human CYP1A2 with NADPH; format: in vitro ADME; settings: CYP1A2 share of CYP metabolism, scaled by abundance and ISEF
[7] = phase I FIH study ref 7; cited from earlier work
[8] = Human liver microsomal protein binding; format: in vitro ADME; settings: human liver microsomes
CYP1A2 [9] = biological target: T3, CYP1A2; test: biochemical
recombinant human CYP2E1 = recombinant human CYP2E1 (Homo sapiens, UniProt P05181); test: Metabolic stability in recombinant human CYP2E1 with NADPH; format: in vitro ADME; settings: CYP2E1 share of CYP metabolism, scaled by abundance and ISEF
Chain of recombinant human CYP2E1 (P05181 whole entry): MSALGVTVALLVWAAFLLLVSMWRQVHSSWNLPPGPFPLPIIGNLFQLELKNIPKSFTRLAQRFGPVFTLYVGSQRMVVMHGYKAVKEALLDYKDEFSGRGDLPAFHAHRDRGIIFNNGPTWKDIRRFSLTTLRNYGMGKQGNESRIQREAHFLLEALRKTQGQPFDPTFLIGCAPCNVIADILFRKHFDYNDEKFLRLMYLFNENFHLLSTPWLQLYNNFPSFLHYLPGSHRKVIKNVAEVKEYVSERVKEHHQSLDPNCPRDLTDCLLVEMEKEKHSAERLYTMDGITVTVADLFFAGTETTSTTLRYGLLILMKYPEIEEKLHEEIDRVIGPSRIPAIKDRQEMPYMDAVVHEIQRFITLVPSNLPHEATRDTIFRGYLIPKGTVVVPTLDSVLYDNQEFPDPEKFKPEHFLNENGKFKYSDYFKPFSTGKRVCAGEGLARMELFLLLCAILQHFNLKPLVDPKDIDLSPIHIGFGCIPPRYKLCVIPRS

[10] = radiolabeled pomotrelvir ref 16; cited from earlier work
CYP2C8 = biological target: T5, CYP2C8 (Homo sapiens, UniProt P10632); test: Metabolic stability in recombinant human CYP2C8 with NADPH; format: in vitro ADME; settings: CYP2C8 share of CYP metabolism, scaled by abundance and ISEF
T5 sequence (P10632 1-490): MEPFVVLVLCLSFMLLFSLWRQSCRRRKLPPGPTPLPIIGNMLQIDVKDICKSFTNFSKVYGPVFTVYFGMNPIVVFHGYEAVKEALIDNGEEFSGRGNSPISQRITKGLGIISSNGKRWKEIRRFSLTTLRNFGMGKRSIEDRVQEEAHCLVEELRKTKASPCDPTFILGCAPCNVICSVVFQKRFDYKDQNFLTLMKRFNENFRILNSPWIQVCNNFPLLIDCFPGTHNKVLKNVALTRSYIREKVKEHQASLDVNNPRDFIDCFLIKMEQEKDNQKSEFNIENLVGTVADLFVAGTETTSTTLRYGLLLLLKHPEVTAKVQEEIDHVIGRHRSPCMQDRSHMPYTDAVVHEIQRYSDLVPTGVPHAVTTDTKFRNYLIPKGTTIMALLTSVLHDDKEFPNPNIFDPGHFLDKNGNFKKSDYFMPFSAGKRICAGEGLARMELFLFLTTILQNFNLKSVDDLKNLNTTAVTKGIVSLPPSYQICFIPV

T1 sequence (P33261 whole entry): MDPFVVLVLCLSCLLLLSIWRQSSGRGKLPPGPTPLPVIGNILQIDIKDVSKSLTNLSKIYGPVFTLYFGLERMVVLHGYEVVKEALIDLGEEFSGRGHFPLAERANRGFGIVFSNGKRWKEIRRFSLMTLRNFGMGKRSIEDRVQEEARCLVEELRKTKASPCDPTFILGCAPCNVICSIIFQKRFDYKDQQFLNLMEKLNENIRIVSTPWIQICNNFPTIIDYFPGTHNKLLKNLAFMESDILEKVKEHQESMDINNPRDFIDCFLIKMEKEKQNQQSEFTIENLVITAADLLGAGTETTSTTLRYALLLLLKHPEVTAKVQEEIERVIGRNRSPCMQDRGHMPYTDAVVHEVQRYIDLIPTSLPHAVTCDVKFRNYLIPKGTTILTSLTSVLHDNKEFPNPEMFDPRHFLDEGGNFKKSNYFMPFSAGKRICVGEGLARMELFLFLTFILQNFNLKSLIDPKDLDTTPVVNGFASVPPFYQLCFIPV

SMILES: N#C[C@H](C[C@@H]1CCCNC1=O)NC(=O)[C@H](CC1CC1)NC(=O)c1cc2cccc(Cl)c2[nH]1 [Pomotrelvir, pomotrelvir]
- contribution of nonhepatic, presystemic hydrolysis to apparent clearance (following oral dosing, thought to contribute): ~ 50%
- CL/F (mean apparent oral clearance) (oral dose of 300 mg administered with food (FIH study)): 33.19 L/h
- Relative Contribution (fm) (CYP2C19 [1]): negligible
- Ki (CYP3A4 [2]): 34.7 µM
- inhibitory effect on CYP3A4 in vitro (in words) (CYP3A4 [2]; main text summary): time‐dependent inhibition (TDI)
- inhibitory effect on CYP1A2 in vitro (in words) (CYP1A2 [3]): weak to moderate inhibition
- Relative Contribution (fm) (CYP3A4 [4]): 88%
- Ki (CYP2C19 [5]): 27.3 µM
- Relative Contribution (fm) (recombinant human CYP2A6): negligible
- Relative Contribution (fm) (CYP1A2 [6]): negligible
- oral bioavailability [7]: good
- tolerability [7]: well tolerated
- fraction unbound [8]: 0.85
- Ki (CYP1A2 [9]): 9.04 µM
- Relative Contribution (fm) (recombinant human CYP2E1): negligible
- major route of metabolism and clearance [10]: nonhepatic hydrolysis
- urinary excretion of intact drug [10]: Minimal
- Relative Contribution (fm) (CYP2C8): 11%
